Reference: patent US9428431B2, “Compositions comprising CB receptor agonists, uses thereof and methods for their preparation” (Yissum Research Development Company of the Hebrew …, priority 2008, dated 2016)
Where two headings read alike, the source gives them in different places.

Tests used:
[1] = tested on: OVX mouse model; assay: Rescue of ovariectomy (OVX)-induced trabecular bone loss, μCT of L3 vertebrae; format: in vivo
Description: Data are mean±S.E. obtained in 6 mice per condition. (*) p<0.05.
Using this experimental system for testing bone anabolic activity, OVXed mice are left untreated to allow for bone loss to occur, followed by a treatment period intended for reversal of the bone loss (Alexander et al, 2001).

[2] = target: T1, CB1 receptor (Rattus norvegicus, UniProt P20272); assay: CB1 receptor binding, [3H]HU-243 displacement, synaptosomal membranes; set-up: species or system Sabra rats
T1 construct: synaptosomal membranes were prepared from the brains of Sabra rats by homogenization and gradient centrifugation; from tissue; host or cells: brain of Sabra rats, synaptosomal membranes
Protocol: For CB1 receptor binding, synaptosomal membranes were prepared from the brains of Sabra rats by homogenization and gradient centrifugation (Devane et al, 1992). For CB2 receptor binding assay, COS-7 cells were transfected with plasmids containing CB2 cDNA, and crude membranes were prepared (Munro et al, 1993).
Bound and free radioligands were separated by centrifugation. The data were normalized to 100% of specific binding, which was determined with 50 nM unlabeled HU-243.

[3] = tested on: Osteoblastic MC3T3 E1 cells; assay: Stimulation of MC3T3 E1 osteoblastic cell number; format: cell-based; settings: for ligand concentration that doubled cell number: MC3T3 E1 cells, last 46 hours in culture, DMSO solution
Protocol: Osteoblastic MC3T3 E1 cells were cultured as reported in Miguel et al, 2005. […] Control cultures were treated only with the DMSO solvent (Ofek et al, 2006).

[4] = target: T1, CB1 receptor; settings: cited from earlier work
[5] = tested on: osteoblastogenesis / osteoclastogenesis; settings: cited from earlier work
[6] = target: T2, CB2 receptor (Homo sapiens, UniProt P34972); settings: Hanus et al.; cited from earlier work
T2 construct: expressed in transfected cells; host or cells: COS-7 cells

[7] = tested on: mice; settings: cited from earlier work

T1 sequence (P20272 whole entry): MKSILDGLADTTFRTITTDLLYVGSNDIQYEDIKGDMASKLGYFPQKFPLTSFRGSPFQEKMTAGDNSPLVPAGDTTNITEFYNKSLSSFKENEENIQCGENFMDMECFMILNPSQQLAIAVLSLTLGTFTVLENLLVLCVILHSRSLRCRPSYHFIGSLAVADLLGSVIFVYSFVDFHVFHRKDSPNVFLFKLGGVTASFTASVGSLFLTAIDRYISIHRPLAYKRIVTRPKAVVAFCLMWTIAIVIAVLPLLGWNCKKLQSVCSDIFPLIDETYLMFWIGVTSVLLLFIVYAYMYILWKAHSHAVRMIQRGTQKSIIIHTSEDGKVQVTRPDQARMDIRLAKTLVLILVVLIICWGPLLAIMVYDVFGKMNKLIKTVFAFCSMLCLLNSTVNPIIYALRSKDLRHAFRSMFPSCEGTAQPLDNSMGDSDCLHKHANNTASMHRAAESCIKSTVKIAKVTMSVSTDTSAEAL
T2 sequence (P34972 whole entry): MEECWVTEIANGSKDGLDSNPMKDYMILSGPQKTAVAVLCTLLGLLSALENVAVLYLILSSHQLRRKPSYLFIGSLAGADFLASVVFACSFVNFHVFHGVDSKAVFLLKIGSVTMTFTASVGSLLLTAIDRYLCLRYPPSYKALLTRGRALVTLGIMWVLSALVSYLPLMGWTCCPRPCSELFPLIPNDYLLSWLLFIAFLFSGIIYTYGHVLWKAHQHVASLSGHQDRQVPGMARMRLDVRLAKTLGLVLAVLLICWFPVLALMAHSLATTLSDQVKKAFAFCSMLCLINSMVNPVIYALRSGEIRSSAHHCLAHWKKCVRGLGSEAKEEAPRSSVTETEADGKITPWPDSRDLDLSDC

| Compound | rescue of OVX-induced trabecular bone loss ([1]; 0.2 mg/Kg/day intraperitoneal for 6 weeks, starting 6 weeks after OVX, L3 vertebrae μCT) | effect compared with reversal of bone volumetric density by parathyroid hormone (1-34) ([1]; comparison with Alexander et al, 2001) | Ki [2] [µM] | binding to CB1 receptor ([2]; present example) | in vitro skeletal activity compared to HU-308 ([3]; MC3T3 E1 cell number assay) [fold] | ligand concentration that doubled cell number [3] | binding to CB1 receptor ([4]; Hanus et al.) | Ki ([4]; read-out: Ki CB1, HU-308, from Hanus et al, 1999) [µM] | reversal of OVX-induced trabecular bone loss ([1]; 20 mg/Kg/day intraperitoneal for 6 weeks, starting 6 weeks after OVX, L3 vertebrae μCT) [%] | in vitro osteoblastogenesis [5] | in vitro osteoclastogenesis [5] | binding to CB2 receptor [6] | OVX-induced bone loss ([7]; another mouse model, Bab et al, 2008) | bone formation ([7]; mice, Ofek et al, 2006) | bone resorption ([7]; mice, Ofek et al, 2006) | ovariectomy (OVX)-induced bone loss ([7]; mice, Ofek et al, 2006) | Kd ([4]; radioligand probe, read-out: dissociation constant for the CB1 receptor) [nM] |
| --- | --- | --- | --- | --- | --- | --- | --- | --- | --- | --- | --- | --- | --- | --- | --- | --- | --- |
| CCCCCCC(C)(C)c1cc(OC)c([C@@H]2C=C(CO)C3CC2C3(C)C)c(OC)c1 (single isomer, unassigned; (-)) [HU-433, (−)-2-(3-myrtenyl)-5-dimethylheptyl resorcinol] | significantly rescued almost the entire OVX-induced trabecular bone loss | substantially greater | > 20 | did not bind to CB1 receptor | 1000 | 10^−11 M | – | – | – | – | – | – | – | – | – | – | – |
| CCCCCCC(C)(C)c1cc(OC)c([C@@H]2C=C(CO)[C@@H]3C[C@H]2C3(C)C)c(OC)c1 [HU-308] | – | – | – | – | – | 10^−8 M | did not bind to CB1 receptor | > 10 | 50 | stimulates | inhibits | potent binding to CB2 receptor | rescues | stimulates bone formation | inhibits bone resorption | attenuating | – |
| CCCCCCC(C)(C)c1cc(O)c2c(c1)OC(C)(C)[C@@H]1CC[C@@H](CO)C[C@@H]21 [[^3H]HU-243] | – | – | – | – | – | – | – | – | – | – | – | – | – | – | – | – | 0.045 ± 0.007 |
